Source: patent US10966426B2, “Herbicidal compositions comprising phenylpyrimidines” (BASF SE, priority 2016, dated 2021)
“And” between values parts separate entries of the source, which are not always exact repeats. Identical values can stand only once.

Columns and labels:
Type in all cases: in vivo
Bromus sterilis = assay: greenhouse post-emergence treatment, BROST
Outline: (§1)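 Scoring ran on a 0-100 scale, 100 meaning no emergence or destroyed above-ground parts, over a 2-4 week period; Colby formula E=X+Y−(X·Y/100) gave expected mixture effects. Species grew separately in loamy sand (about 3.0% humus) at 10-25° C or 20-35° C, with water as solvent.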

Alopecurus myosuroides = assay: greenhouse post-emergence treatment, ALOMY; conditions: ALOMY
Outline: as §1

Lolium multiflorum = assay: greenhouse post-emergence treatment, LOLMU; conditions: LOLMU
Outline: as §1

Ambrosia elatior = assay: greenhouse pre-emergence treatment, AMBEL; conditions: AMBEL
Outline: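 Damage rated on 0 to 100 scale (0 = normal growth, 100 = no emergence or total above-ground kill) after 2-4 weeks at species-dependent 10-25° C or 20-35° C. Seeds sown per species in loamy sand, ~3.0% humus, treated right after sowing with aqueous spray of single actives or 10% emulsion-concentrate mixtures, then hooded; additive expectation by Colby.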

Avena fatua = assay: greenhouse post-emergence treatment, AVEFA; conditions: AVEFA
Outline: as §1

[1] = solo Ex. 5 15 gai/ha, 20 DAT, 2nd series of rows
[2] = solo Ex. 5 62.5 gai/ha, 20 DAT, 2nd series of rows
[3] = solo Ex. 5 250 gai/ha, 20 DAT, 2nd series of rows
[4] = solo Ex. 5 500 gai/ha, 20 DAT, 2nd series of rows
[5] = Table X12, 20 DAT, solo Ex. 5 31.25 gai/ha
[6] = Table X12, 20 DAT, solo Ex. 5 62.5 gai/ha
[7] = Table X12, 20 DAT, solo Ex. 5 125 gai/ha

## O=C(O)c1nc(C2CC2)ncc1-c1ccccc1Cl [Ex. 5]
Bromus sterilis; 250 gai/ha, 20 DAT, BROST, Table X3
  % activity, solo application: 80%
Bromus sterilis; BROST, 20 DAT, solo Ex. 5 62.5 gai/ha
  % activity: 35%
Bromus sterilis; BROST, 20 DAT, solo Ex. 5 250 gai/ha
  % activity: 80%
Bromus sterilis; BROST, solo Ex. 5 62.5 gai/ha, 20 DAT
  % activity: 30% and 53%
Bromus sterilis; BROST, solo Ex. 5 125 gai/ha, 20 DAT
  % activity: 65% and 73%
Bromus sterilis; BROST, solo Ex. 5 250 gai/ha, 20 DAT
  % activity: 70% and 85%
Bromus sterilis; BROST, solo Ex. 5 500 gai/ha, 20 DAT
  % activity: 90%
Bromus sterilis; solo, BROST, 125 gai/ha, 20 DAT
  % activity: 65%
Bromus sterilis; solo, BROST, 250 gai/ha, 20 DAT
  % activity: 70% and 80%
Alopecurus myosuroides; 62.5 gai/ha, 20 DAT, Table X3
  % activity, solo application: 75%
Alopecurus myosuroides; 125 gai/ha, 20 DAT, Table X7
  % activity, solo application: 80%
Alopecurus myosuroides; 250 gai/ha, 20 DAT, Table X5
  % activity, solo application: 85%
Alopecurus myosuroides; 250 gai/ha, 20 DAT, Table X7
  % activity, solo application: 75%
Alopecurus myosuroides; [1]
  % activity: 80%
Alopecurus myosuroides; solo Ex. 5 62.5 gai/ha, 20 DAT
  % activity: 70% and 68%
Alopecurus myosuroides; [2]
  % activity: 70%
Alopecurus myosuroides; solo Ex. 5 125 gai/ha, 20 DAT
  % activity: 70%
Alopecurus myosuroides; solo Ex. 5 250 gai/ha, 20 DAT
  % activity: 73%
Alopecurus myosuroides; [3]
  % activity: 80%
Alopecurus myosuroides; solo Ex. 5 250 gai/ha, 21 DAT
  % activity: 80%
Alopecurus myosuroides; solo Ex. 5 500 gai/ha, 20 DAT
  % activity: 78%
Alopecurus myosuroides; [4]
  % activity: 80%
Alopecurus myosuroides; [5]
  % activity: 70%
Alopecurus myosuroides; [6]
  % activity: 70%
Alopecurus myosuroides; [7]
  % activity: 80%
Alopecurus myosuroides; solo, 62.5 gai/ha, 20 DAT
  % activity: 75%
Alopecurus myosuroides; solo, 125 gai/ha, 20 DAT
  % activity: 80% and 75%
Alopecurus myosuroides; solo, 250 gai/ha, 20 DAT
  % activity: 80%
Lolium multiflorum; 125 gai/ha, 20 DAT, Table X4
  % activity, solo application: 80%
Lolium multiflorum; 125 gai/ha, 20 DAT, Table X5
  % activity, solo application: 80%
Lolium multiflorum; 250 gai/ha, 20 DAT, Table X4
  % activity, solo application: 80%
Lolium multiflorum; 21 DAT, solo Ex. 5 125 gai/ha
  % activity: 85%
Lolium multiflorum; 21 DAT, solo Ex. 5 250 gai/ha
  % activity: 85%
Lolium multiflorum; [1]
  % activity: 85%
Lolium multiflorum; solo Ex. 5 62.5 gai/ha, 20 DAT
  % activity: 80%
Lolium multiflorum; [2]
  % activity: 80%
Lolium multiflorum; solo Ex. 5 125 gai/ha, 20 DAT
  % activity: 80% and 83%
Lolium multiflorum; solo Ex. 5 250 gai/ha, 20 DAT
  % activity: 85%
Lolium multiflorum; [3]
  % activity: 85%
Lolium multiflorum; solo Ex. 5 250 gai/ha, 21 DAT
  % activity: 80%
Lolium multiflorum; solo Ex. 5 500 gai/ha, 20 DAT
  % activity: 85%
Lolium multiflorum; [4]
  % activity: 85%
Lolium multiflorum; Table X8, 20 DAT, solo Ex. 5 125 gai/ha
  % activity: 85%
Lolium multiflorum; [7]
  % activity: 85%
Lolium multiflorum; solo, 62.5 gai/ha, 20 DAT
  % activity: 75%
Lolium multiflorum; solo, 125 gai/ha, 20 DAT
  % activity: 80% and 50%
Lolium multiflorum; solo, 250 gai/ha, 20 DAT
  % activity: 80%
Ambrosia elatior; 31.25 gai/ha, 20 DAT, Table X1
  % activity, solo application: 30%
Ambrosia elatior; 62.5 gai/ha, 20 DAT, Table X1
  % activity, solo application: 45%
Ambrosia elatior; 62.5 gai/ha, 20 DAT, Table X2
  % activity, solo application: 0%
Ambrosia elatior; 62.5 gai/ha, 20 DAT, Table X6
  % activity, solo application: 0%
Ambrosia elatior; 250 gai/ha, 20 DAT, Table X1
  % activity, solo application: 98%
Ambrosia elatior; 20 DAT, solo Ex. 5 31.25 gai/ha
  % activity: 10%
Ambrosia elatior; 20 DAT, solo Ex. 5 31.25 gai/ha (Table X70)
  % activity: 20%
Ambrosia elatior; 20 DAT, solo Ex. 5 62.5 gai/ha
  % activity: 70%
Ambrosia elatior; 20 DAT, solo Ex. 5 125 gai/ha
  % activity: 85%
Ambrosia elatior; Ex. 5 solo, 62.5 gai/ha, 20 DAT
  % activity: 70%
Ambrosia elatior; Table X10, 20 DAT, solo Ex. 5 31.25 gai/ha
  % activity: 30%
Ambrosia elatior; Table X10, 20 DAT, solo Ex. 5 62.5 gai/ha
  % activity: 45%
Ambrosia elatior; Table X11, 20 DAT, solo Ex. 5 62.5 gai/ha
  % activity: 45%
Ambrosia elatior; solo, 62.5 gai/ha, 20 DAT
  % activity: 70%
Ambrosia elatior; solo, 125 gai/ha, 21 DAT
  % activity: 70%
Avena fatua; 125 gai/ha, 20 DAT, Table X4
  % activity, solo application: 75%
Avena fatua; 125 gai/ha, 20 DAT, Table X5
  % activity, solo application: 70%
Avena fatua; 250 gai/ha, 20 DAT, Table X5
  % activity, solo application: 75%
Avena fatua; 20 DAT, solo Ex. 5 125 gai/ha
  % activity: 85%
Avena fatua; 20 DAT, solo Ex. 5 250 gai/ha
  % activity: 85%
Avena fatua; solo Ex. 5 62.5 gai/ha, 20 DAT
  % activity: 68%
Avena fatua; [2]
  % activity: 75%
Avena fatua; solo Ex. 5 125 gai/ha, 20 DAT
  % activity: 70%
Avena fatua; solo Ex. 5 250 gai/ha, 20 DAT
  % activity: 75% and 70%
Avena fatua; solo Ex. 5 500 gai/ha, 20 DAT
  % activity: 75%
Avena fatua; Ex. 5 solo, 62.5 gai/ha, 21 DAT
  % activity: 80%
Avena fatua; Ex. 5 solo, 125 gai/ha, 21 DAT
  % activity: 80%
Avena fatua; Ex. 5 solo, 250 gai/ha, 21 DAT
  % activity: 85%
Avena fatua; [5]
  % activity: 70%
Avena fatua; [6]
  % activity: 75% and 80%
Avena fatua; [7]
  % activity: 85%
